# Values of other authors as cited in paper PMC5758054 (Journal of natural products, 2017).
# System: murine colorectal cancer lung metasteses
# Details: ref [36],[37]
compound,measurement,value
N#C[C@@H]1CCCN1C(=O)CNC12CC3CC(CC(O)(C3)C1)C2 [Vildagliptin],in vivo tumor suppressor activity (in words),has in vivo tumor suppressor activity
